# Several values for one entry are separate records, joined by “and”; a condition that tells them apart may be missing. Identical values can stand only once. Entries after “also recorded” stand apart in the source; their conditions may differ. Like-named read-outs stand apart in the source and are kept apart here.
# Columns and labels:
# [1] = tested on: Human Platelet Aggregation (collagen-induced); test: Anti-aggregatory activity, 1 min incubation with PRP, collagen-induced (Example 8); assay type: cell-based; details: 1 minute with PRP
# Method: (§1) Blood from healthy human volunteers who had not taken any medicine for at least 14 days was collected by venopuncture into 3.15% (w/v) tri-sodium citrate (9:1 v/v). The blood was centrifuged at 800 g for 15 minutes to produce PRP. The PRP was further centrifuged at 12,000 g for 1 minute to produce PPP. A total of 12 volunteers donated blood for the study.
# (§2) Platelet aggregation was studied using a dual channel Payton aggregometer calibrated with PRP (0%) and PPP (100%) with respect to the degree of light transmission. Aliquots of PRP (500 μl) were added to siliconized cuvettes, stirred (1000 revs/min) and warmed to 37° C. The platelets were incubated for 1 minute to establish a stable baseline prior to investigation. A submaximal concentration of the aggregating agent collagen (1 μg/ml) was added to the PRP and the platelet aggregation was monitored as the increase in light transmission observed over a 4 minute period.
# The percentage inhibition of the platelet aggregation was calculated using the peak increase in light transmission observed over the 4 minute period following addition of collagen, as compared to that of control. This experiment was repeated using PRP from at least three human volunteers for each compound under study.
# [2] = tested on: Human Platelet Aggregation (collagen-induced); test: Anti-aggregatory response after incubation with PPP (Example 8); assay type: cell-based
# Method: as §1, §2
# (§3) After the incubation period, an aliquot of the PPP or aqueous vehicle (50 μl) was added to fresh PRP (450 μl) for determination of anti-platelet activity. This experiment was repeated using PPP from at least three human volunteers for each compound.
# [3] = tested on: Human Platelet Aggregation (collagen-induced); test: Anti-aggregatory response after incubation with aqueous vehicle (Example 8); assay type: cell-based; details: up to 4 hours at 37° C
# Method: as §1, §2, §3
# [4] = tested on: mean arterial pressure and heart rate of anesthetized rats; test: Systemic hemodynamic effects, intravenous, anesthetized rats (Example 9); assay type: in vivo, rat (male Wistar)
# Method: Among other effects, lowering of the blood pressure inside the blood vessels is beneficial for the treatment of congestive heart failure by reducing the vascular resistance of the blood flow which substantially reduces the work load imposed on the heart. […] This study involved the use of male Wistar rats anaesthetized with thiopentone sodium ([…]®, 120 mg kg^-1 i.p.). The trachea was cannulated to facilitate breathing.
# [5] = tested on: mean arterial pressure and heart rate of anesthetized rats; details: for Time of second Δmax (superscript) / Time of Δmax (superscript) / t1/2 / Δmax (Mean Arterial Pressure) / Δmax, second value in parentheses: Table 5; for Mean Arterial Pressure: b338-b348 = 0,1,5,10,15,30,60,120,180,240,360 min
# Method: Male Wistar rats (250-330 g) were anesthetized with thiopentone sodium (INTRAVAL®, 120 mg/kg i.p.). The trachea was cannulated to facilitate respiration. The right carotid artery was cannulated and connected to a pressure transducer (Spectramed P23XL), for the measurement of mean arterial pressure (MAP) and heart rate (HR) which were continuously recorded on a 4-channel Grass 7D polygraph recorder (Grass, Mass., U.S.A.). Body temperature was maintained at 37±1°C. by means of a rectal probe thermometer attached to a homeothermic blanket control unit (Harvard Apparatus Ltd.).
# [6] = background; cited from earlier work
compound,measurement,setting,value
"CCCCCC(CCC1C(OC(C)=O)CC2Cc3c(cccc3OCC(=O)O)CC21)OC(C)=O (stereo not drawn) [Compound 4, Compound X Diacetate]",inhibiting aggregation by 50% concentration (IC50),[1],68 ± 2 µg/mL
same,"inhibition of platelet aggregation, concentration dependence",[1],concentration-dependent inhibition of platelet aggregation
same,inhibition of aggregation response at highest concentrations,"[1]; X 30 and 100 ng/ml, 4 300 μg/ml, 6 3 mg/ml, 7 10 mg/ml",completely inhibited the aggregation response
same,IC50,[2]; after 15 minutes in PPP,5 ± 0.2 µg/mL
same,increase in anti-platelet activity,[2]; after 15 minutes in PPP,~10 fold
same,increase in activity on incubation with plasma or aqueous vehicle,"[2]; initial ten (10) minute period, plasma or aqueous vehicle",~10 fold
same,effect of incubation with PPP on anti-platelet activity,[2]; up to 4 hours at 37° C,no further increase in activity; also recorded: this increase in activity was no greater after four (4) hours of incubation
same,effect of incubation with aqueous vehicle/saline/buffer on anti-platelet activity,[3],This effect was also observed during incubation of the compound in saline
same,effective life of the fall in MAP,[4]; 1 mg/kg i.v.,about 110 minutes
same,maximum fall in MAP,[4]; 1 mg/kg i.v.,about 30 mm Hg
same,time of maximum fall in MAP,[4]; 1 mg/kg i.v.,30 min
same,effective life of the fall in MAP,[4]; comparison of Compound 4 with Compound X (1 mg/kg i.v.),over 90 minutes
same,fall in MAP,"[4]; i.v., Compound X 1 mg/kg, Compound 4 1-10 mg/kg, others 3-30 mg/kg","rapid, dose-related fall in MAP; also recorded: rapid and substantial falls in MAP"
same,effective life of the fall in MAP,[5]; 1 mg/kg s.c.,> 300 min
same,maximum fall in MAP,[5]; 1 mg/kg s.c.,about 26 mm Hg
same,time of maximum fall in MAP,[5]; 1 mg/kg s.c.,60 min
same,Time of second Δmax (superscript),[5]; 1 mg/kg s.c.,210 min
same,Time of Δmax (superscript),[5]; 1 mg/kg s.c.,60 min
same,t1/2,[5]; 1 mg/kg s.c.,> 5 h
same,Δmax (Mean Arterial Pressure),[5]; 1 mg/kg s.c.,26 ± 6 mm Hg
same,"Δmax, second value in parentheses",[5]; 1 mg/kg s.c.,28 ± 7 mm Hg
same,Mean Arterial Pressure,[5]; 1 mg/kg s.c.,87 ± 3 mm Hg and 94 ± 3 mm Hg
same,another fall in MAP,"[5]; 1 mg/kg s.c., second fall",28 mm Hg
same,time of another fall in MAP,"[5]; 1 mg/kg s.c., second fall",210 min
same,effective life of the fall in MAP,[5]; 3 mg/kg s.c.,> 330 min
same,Time of Δmax (superscript),[5]; 3 mg/kg s.c.,30 min
same,t1/2,[5]; 3 mg/kg s.c.,> 5.5 h
same,Δmax (Mean Arterial Pressure),[5]; 3 mg/kg s.c.,41 mm Hg
same,Mean Arterial Pressure,[5]; 3 mg/kg s.c.,87 ± 4 mm Hg
same,effective life of the fall in MAP,[5]; 10 mg/kg s.c.,> 300 min
same,Time of second Δmax (superscript),[5]; 10 mg/kg s.c.,150 min
same,Time of Δmax (superscript),[5]; 10 mg/kg s.c.,60 min
same,t1/2,[5]; 10 mg/kg s.c.,> 5 h
same,Δmax (Mean Arterial Pressure),[5]; 10 mg/kg s.c.,45 ± 5 mm Hg
same,"Δmax, second value in parentheses",[5]; 10 mg/kg s.c.,48 ± 6 mm Hg
CCCCC[C@H](O)/C=C/[C@@H]1[C@H]2C/C(=C/CCCC(=O)O)O[C@H]2C[C@H]1O [prostacyclin],effective life,[6],less than six
